Reference: the NIST ThermoML archive (doi:10.1021/je050460d)

Test: xn = mol fraction of the nth substance listed
Details: 101 kPa, Liquid; for viscosity: Capillary tube (Ostwald / Ubbelohde) method; for mass density: Vibrating tube method

CCCCCCCC[n+]1ccn(C)c1.[Cl-] [1-methyl-3-octylimidazolium chloride] + O
Details	mass density, 298.15 K [kg/m3]	mass density, 313.15 K [kg/m3]	mass density, 328.15 K [kg/m3]	mass density, 343.15 K [kg/m3]	viscosity, 298.15 K [mPa·s]	viscosity, 313.15 K [mPa·s]	viscosity, 328.15 K [mPa·s]	viscosity, 343.15 K [mPa·s]
x2 = 0	1008.82	1000.2	991.67	983.24	20883	4066	1091	387.2
x2 = 0.1484	1009.61	1000.98	992.42	983.87	5570	1470	484.6	200.1
x2 = 0.203	1009.99	1001.35	992.77	984.21	3815	1097	393.5	165.4
x2 = 0.4076	1011.83	1003.2	994.4	985.6	1325	387.9	170.8	84.75
x2 = 0.5334	1012.7	1003.76	994.81	985.96	921.1	337.9	147.7	74.31
x2 = 0.6807	1012.37	1003.16	993.98	984.8	433	175.5	83.26	44.23
x2 = 0.8185	1009.16	1000.09	990.76	981.11	193.4	83.87	42.22	24.22
x2 = 0.8803	1006.63	997.6	988.16	978.39	80.77	38.02	20.45	12.17
x2 = 0.9307	1003.69	995.12	985.89	976.15	22.48	13.27	8.18	5.33
x2 = 0.9635	1001.1	993.58	985.06	975.71	5.71	4.25	3.3	2.65

CCCCCCn1cc[n+](C)c1.[Cl-] [1-hexyl-3-methylimidazolium chloride] + O
Details	mass density, 298.15 K [kg/m3]	mass density, 313.15 K [kg/m3]	mass density, 328.15 K [kg/m3]	mass density, 343.15 K [kg/m3]	viscosity, 298.15 K [mPa·s]	viscosity, 313.15 K [mPa·s]	viscosity, 328.15 K [mPa·s]	viscosity, 343.15 K [mPa·s]
x2 = 0	1039.67	1031.13	1022.69	1014.34	18089	3429	942.1	339.5
x2 = 0.1274	1040.45	1031.89	1023.44	1015.06	7667	1746	516.4	207.4
x2 = 0.3173	1040.7	1032.22	1023.8	1015.5	1020	393.5	165.7	79.07
x2 = 0.3906	1040.95	1032.63	1024.3	1015.77	499.4	188.9	86.76	45.52
x2 = 0.5594	1041.4	1032.76	1024.14	1015.4	201.2	88.11	44.87	25.37
x2 = 0.7127	1038.77	1029.8	1020.75	1011.45	60.75	30.04	16.83	10.39
x2 = 0.783	1035.72	1026.67	1017.17	1007.71	33.79	17.49	10.17	6.542
x2 = 0.8935	1025.28	1016.2	1006.79	997	8.688	5.191	3.367	2.358
x2 = 0.9417	1018.17	1009.43	1000.13	990.26	3.505	2.323	1.649	1.224

CCCCn1cc[n+](C)c1.[Cl-] [1-butyl-3-methylimidazolium chloride] + O
Details	mass density, 298.15 K [kg/m3]	mass density, 313.15 K [kg/m3]	mass density, 328.15 K [kg/m3]	mass density, 343.15 K [kg/m3]	viscosity, 298.15 K [mPa·s]	viscosity, 313.15 K [mPa·s]	viscosity, 328.15 K [mPa·s]	viscosity, 343.15 K [mPa·s]
x2 = 0.5666	1081	1072	1063.4	1054.7	123.5	56.63	30.04	17.69
x2 = 0.607	1079.9	1070.8	1062	1053.1	72.16	35.36	19.75	12.2
x2 = 0.6933	1076.5	1067.2	1058.1	1048.8	35.66	18.94	11.32	7.386
x2 = 0.7698	1071.1	1061.5	–	–	18.08	10.11	–	–
x2 = 0.7699	–	–	1052.1	1042.4	–	–	6.474	4.419
x2 = 0.8279	1063.8	1054.1	1044.5	1034.4	10.19	6.125	4.019	2.858
x2 = 0.8674	1057.1	1047.1	1037.3	1027.1	6.628	4.123	2.795	2.043
x2 = 0.9194	1042.3	1032.8	1023.3	1013.1	3.543	2.311	1.635	1.228
x2 = 0.9625	1022.3	1014	1006.1	996.7	1.886	1.297	0.955	0.741
x2 = 0.9885	1005.2	999.1	989.3	979.6	1.175	0.955	0.753	0.652
